In US8501755B2, “Tetrahydropyridothienopyrimidine compounds and methods of use thereof” (Bayer Intellectual Property GmbH, priority 2006, dated 2013):

What was measured:
Format in all cases: cell-based
[1] = system: A431 cells; assay: In vitro tumor cell proliferation assay (Cell Titer-Glo) in A431 cells; details: Homo sapiens, A-431, 72 h, A431 human epidermoid carcinoma overexpressing HER1; 72 hours exposure; read-out: IC50, activities in A431 cell lines
Excerpt: (§1) The tumor cell proliferation assay used to test the compounds of the present invention involves a readout called Cell Titer-Glow® Luminescent Cell Viability Assay developed by Promega® (Cunningham, BA “A Growing Issue: Cell Proliferation Assays, Modern kits ease quantification of cell growth” The Scientist 2001, 15(13), 26, and Crouch, S P et al., “The use of ATP bioluminescence as a measure of cell proliferation and cytotoxicity” Journal of Immunological Methods 1993, 160, 81-88), that measures inhibition of cell proliferation. Generation of a luminescent signal corresponds to the amount of ATP present, which is directly proportional to the number of metabolically active (proliferating) cells. A431 cells [human epidermoid carcinoma, ATCC # HTB-20, overexpressing HER1 (EGFR, ErbB1)] and N87 [human gastric carcinoma, ATCC # CRL-1555, overexpressing HER2 (ErbB2) and HER1 (EGFR, ErbB1)] were plated at a density of 2.5×10^3 cells/well in 96 well black-clear bottom tissue culture plates in RPMI media with 10% Fetal Bovine Serum and incubated at 37° C. Twenty-four hours later, test compounds are added at a final concentration range from as high 100 μm to as low […] depend on the activities of the tested compounds in serial dilutions at a final DMSO concentration of 0.1%. Cells were incubated for 72 hours at 37° C. in complete growth media after addition of the test compound. After 72 hours of drug exposure, the plates were equilibrated to room temperature for approximately 30 min. Then, using a Promega Cell Titer Glo Luminescent® assay kit, lysis buffer containing 100 microliters of the enzyme luciferase and its substrate, luciferin mixture, was added to each well. The plates were mixed for 2 min on orbital shaker to ensure cell lysis and incubated for 10 min at room temperature to stabilize luminescence signal. The samples were read on VICTOR2 using Luminescence protocol, and analyzed with Analyze5 software to generate IC50 values.

[2] = system: N87; assay: In vitro tumor cell proliferation assay (Cell Titer-Glo) in N87 cells; details: N87 human gastric carcinoma overexpressing HER2 and HER1; 72 hours exposure; read-out: IC50, activities in N87 cell lines
Excerpt: as §1

[3] = system: H1975 cells; assay: In vitro tumor cell proliferation assay (Cell Titer-Glo) in H1975 cells; details: NCI-H1975; H1975 human NSCLC expressing mutant HER1 (L858R,T790M); 72 hours exposure; read-out: IC50, activities in H 1975 cell lines
Excerpt: The tumor cell proliferation assay used to test the compounds of the present invention involves a readout called Cell Titer-Glow® Luminescent Cell Viability Assay developed by Promega® (Cunningham, BA “A Growing Issue: Cell Proliferation Assays, Modern kits ease quantification of cell growth” The Scientist 2001, 15(13), 26, and Crouch, S P et al., “The use of ATP bioluminescence as a measure of cell proliferation and cytotoxicity” Journal of Immunological Methods 1993, 160, 81-88), that measures inhibition of cell proliferation. Generation of a luminescent signal corresponds to the amount of ATP present, which is directly proportional to the number of metabolically active (proliferating) cells.
H1975 cells [human non small cell lung carcinoma, ATCC # CRL-5908, expressing mutant HER1 [(EGFR, ErbB1)(L858R,T790M] were plated at a density of 3×10^3 cells/well in 96 well black-clear bottom tissue culture plates in RPMI media with 10% Fetal Bovine Serum and incubated at 37° C. Twenty-four hours later, test compounds are added at a final concentration range from as high 10 uM to as low 64 pM depending on the activities of the tested compounds in serial dilutions at a final DMSO concentration of 0.1%. Cells were incubated for 72 hours at 37° C. in complete growth media after addition of the test compound. After 72 hours of drug exposure, the plates were equilibrated to room temperature for approximately 30 min. Then, using a Promega Cell Titer Glo Luminescent® assay kit, lysis buffer containing 100 microliters of the enzyme luciferase and its substrate, luciferin mixture, was added to each well. The plates were mixed for 2 min on orbital shaker to ensure cell lysis and incubated for 10 min at room temperature to stabilize luminescence signal. The samples were read on VICTOR2 using Luminescence protocol, and analyzed with Analyze5 software to generate IC50 values.

| IC50 [1] [µM] | IC50 [2] [µM] | IC50 [3] [µM] | Structure (SMILES) |
| --- | --- | --- | --- |
| < 0.2 | < 0.2 | 1 to 10 | CN(C)C/C=C/C(=O)N1CCc2c(sc3ncnc(Nc4ccc(OCc5cccc(F)c5)c(Cl)c4)c23)C1 [Example 11, N-{3-chloro-4-[(3-fluorobenzyl)oxy]phenyl}-7-[(2E)-4-(dimethylamino)but-2-enoyl]-5,6,7,8-tetrahydropyrido[4′,3′:4,5]thieno[2,3-d]pyrimidin-4-amine] |
| < 0.2 | < 0.2 | 0.2 to 1 | O=C(/C=C/CN1CCCCC1)N1CCc2c(sc3ncnc(Nc4ccc(F)c(Cl)c4)c23)C1 [Example 12, N-(3-chloro-4-fluorophenyl)-7-[(2E)-4-piperidin-1-ylbut-2-enoyl]-5,6,7,8-tetrahydropyrido[4′,3′:4,5]thieno[2,3-d]pyrimidin-4-amine] |
| < 0.2 | < 0.2 | 1 to 10 | CCN(CC)C/C=C/C(=O)N1CCc2c(sc3ncnc(Nc4ccc(OCc5cccc(F)c5)c(Cl)c4)c23)C1 [Example 13, N-{3-chloro-4-[(3-fluorobenzyl)oxy]phenyl}-7-[(2E)-4-(diethylamino)but-2-enoyl]-5,6,7,8-tetrahydropyrido[4′,3′:4,5]thieno[2,3-d]pyrimidin-4-amine] |
| < 0.2 | < 0.2 | 1 to 10 | CN1CCN(C/C=C/C(=O)N2CCc3c(sc4ncnc(Nc5ccc(OCc6cccc(F)c6)c(Cl)c5)c34)C2)CC1 [Example 14, N-{3-chloro-4-[(3-fluorobenzyl)oxy]phenyl}-7-[(2E)-4-(4-methylpiperazin-1-yl)but-2-enoyl]-5,6,7,8-tetrahydropyrido[4′,3′:4,5]thieno[2,3-d]pyrimidin-4-amine] |
| < 0.2 | < 0.2 | 1 to 10 | C#Cc1cccc(Nc2ncnc3sc4c(c23)CCN(C(=O)/C=C/CN2CCOCC2)C4)c1 [Example 15, N-(3-ethynylphenyl)-7-[(2E)-4-morpholin-4-ylbut-2-enoyl]-5,6,7,8-tetrahydropyrido[4′,3′:4,5]thieno[2,3-d]pyrimidin-4-amine] |
| < 0.2 | < 0.2 | 0.2 to 1 | C#Cc1cccc(Nc2ncnc3sc4c(c23)CCN(C(=O)/C=C/CN(CC)CC)C4)c1 [Example 16, 7-[(2E)-4-(diethylamino)but-2-enoyl]-N-(3-ethynylphenyl)-5,6,7,8-tetrahydropyrido[4′,3′:4,5]thieno[2,3-d]pyrimidin-4-amine] |
| < 0.2 | < 0.2 | 0.2 to 1 | C#Cc1cccc(Nc2ncnc3sc4c(c23)CCN(C(=O)/C=C/CN(C)C)C4)c1 [Example 17, 7-[(2E)-4-(dimethylamino)but-2-enoyl]-N-(3-ethynylphenyl)-5,6,7,8-tetrahydropyrido[4′,3′:4,5]thieno[2,3-d]pyrimidin-4-amine] |
| < 0.2 | < 0.2 | 1 to 10 | O=C(/C=C/CN1CCCCC1)N1CCc2c(sc3ncnc(Nc4ccc(OCc5cccc(F)c5)c(Cl)c4)c23)C1 [Example 19, N-{3-chloro-4-[(3-fluorobenzyl)oxy]phenyl}-7-[(2E)-4-piperidin-1-ylbut-2-enoyl]-5,6,7,8-tetrahydropyrido[4′,3′: 4,5]thieno[2,3-d]pyrimidin-4-amine] |
| < 0.2 | < 0.2 | 0.2 to 1 | C#Cc1cccc(Nc2ncnc3sc4c(c23)CCN(C(=O)/C=C/CN2CCCCC2)C4)c1 [Example 20, N-(3-ethynylphenyl)-7-[(2E)-4-piperidin-1-ylbut-2-enoyl]-5,6,7,8-tetrahydropyrido [4′,3′:4,5]thieno[2,3-d]pyrimidin-4-amine] |
| < 0.2 | < 0.2 | < 0.2 | O=C(/C=C/CN1CCCC1)N1CCc2c(sc3ncnc(Nc4ccc(F)c(Cl)c4)c23)C1 [Example 21, N-(3-chloro-4-fluorophenyl)-7-[(2E)-4-pyrrolidin-1-ylbut-2-enoyl]-5,6,7,8-tetrahydropyrido [4′,3′:4,5]thieno[2,3-d]pyrimidin-4-amine] |
| < 0.2 | < 0.2 | 0.2 to 1 | C=CC(=O)N1CCc2c(sc3ncnc(Nc4ccc(F)c(Cl)c4)c23)C1 [Example 22, 7-acryloyl-N-(3-chloro-4-fluorophenyl)-5,6,7,8-tetrahydropyrido [4′,3′:4,5]thieno[2,3-d]pyrimidin-4-amine] |
| 1 to 10 | 0.2 to 5 | 1 to 10 | C/C=C/C(=O)N1CCc2c(sc3ncnc(Nc4ccc(F)c(Cl)c4)c23)C1 [Example 23, 7-[(2E)-but-2-enoyl]-N-(3-chloro-4-fluorophenyl)-5,6,7,8-tetrahydropyrido [4′,3′:4,5]thieno[2,3-d]pyrimidin-4-amine] |
| 0.2 to 1 | < 0.2 | < 0.2 | O=C(/C=C/CN1CCCC1)N1CCc2c(sc3ncnc(Nc4ccc(OCc5ccccn5)c(Cl)c4)c23)C1 [Example 24, N-[3-chloro-4-(pyridin-2-ylmelhoxy)phenyl]-7-[(2E)-4-pyrrolidin-1-ylbut-2-enoyl]-5,6,7,8-tetrahydropyrido [4′,3′:4,5]thieno[2,3-d]pyrimidin-4-amine] |
| 0.2 to 1 | < 0.2 | 0.2 to 1 | O=C(/C=C/CN1CCCC1)N1CCc2c(sc3ncnc(Nc4ccc(OCc5cccc(F)c5)c(Cl)c4)c23)C1 [Example 25, N-{3-chloro-4-[(3-fluorobenzyl)oxy]phenyl}-7-[(2E)-4-pyrrolidin-1-ylbut-2-enoyl]-5,6,7,8-tetrahydropyrido [4′,3′:4,5]thieno[2,3-d]pyrimidin-4-amine] |
| < 0.2 | < 0.2 | < 0.2 | C#Cc1cccc(Nc2ncnc3sc4c(c23)CCN(C(=O)/C=C/CN2CCCC2)C4)c1 [Example 26, N-(3-ethynylphenyl)-7-[(2E)-4-pyrrolidin-1-ylbut-2-enoyl]-5,6,7,8-tetrahydropyrido [4′,3′:4,5]thieno[2,3-d]pyrimidin-4-amine] |
| 1 to 10 | < 0.2 | 0.2 to 1 | C#Cc1cccc(Nc2ncnc3sc4c(c23)CCN(C(=O)C=C)C4)c1 [Example 27, 7-acryloyl-N-(3-ethynylphenyl)-5,6,7,8-tetrahydropyrido [4′,3′:4,5]thieno[2,3-d]pyrimidin-4-amine] |
| 1 to 10 | < 0.2 | < 0.2 | C=CC(=O)N1CCc2c(sc3ncnc(Nc4ccc(OCc5ccccn5)c(Cl)c4)c23)C1 [Example 28] |
| 1 to 10 | 0.2 to 5 | 1 to 10 | CN1CCC=C(C(=O)N2CCc3c(sc4ncnc(Nc5ccc(F)c(Cl)c5)c34)C2)C1 [Example 29, N-(3-chloro-4-fluorophenyl)-7-[(1-methyl-1,2,5,6-tetrahydropyridin-3-yl)carbonyl]5,6,7,8-tetrahydropyrido [4′,3′:4,5]thieno[2,3-d]pyrimidin-4-amine] |
| 1 to 10 | 0.2 to 5 | 1 to 10 | CN1CCC=C(C(=O)N2CCc3c(sc4ncnc(Nc5ccc(OCc6ccccn6)c(Cl)c5)c34)C2)C1 [Example 30, N-[3-chloro-4-(pyridin-2-ylmethoxy)phenyl]-7-[(1-methyl-1,2,5,6-tetrahydropyridin-3-yl)carbonyl]-5,6,7,8-tetrahydropyrido [4′,3′:4,5]thieno[2,3-d]pyrimidin-4-amine] |
